Assay results as given in US12076330B2, “Inhibition of lipofuscin aggregation by molecular tweezers” (The Regents of the University of California, priority 2018, dated 2024).
“Also recorded” adds a separate entry of the source.

Columns and labels:
Type in all cases: cell-based, human
[1] = tested on: lysosomes (LAMP-1) in ARPE-19 cells; assay: Confocal imaging of lipofuscin A2E and LAMP-1 in ARPE-19 cells
Description: (§1) Panel A) CLR01 in PBS and lipofuscin A2E were added to the cells at the indicated times. Cells were incubated up to 6 h in all cases and were imaged using a fluorescence microscope for visualization of lipofuscin autofluorecence (red) and cell nuclei (DAPI, blue). Panel B) Quantification of the data shown in panel A (N=15 per condition). C) Confocal microscopy images showing that lipofuscin colocalizes with the Lysosomal-membrane marker lamp1.

[2] = tested on: lipofuscin (A2E) aggregation in ARPE-19 cells (retinal pigmented epithelium); assay: Lipofuscin A2E accumulation/aggregation in ARPE-19 cells, fluorescence microscopy after 6 h
Description: as §1
To test the effect of CLR01 on lipofuscin aggregation, human, ARPE-19 cells (retinal pigmented epithelium; RPE) were treated with lipofuscin (A2E) in the absence or presence of CLR01 and imaged by fluorescence microscopy at the end of 6 h of incubation (FIG. 1, panel A), as follows: • Condition 1—negative control—20 μl of PBS was added to the cells at t=0 and 20 μl of DMSO at t=1.5 h. • Condition 2—safety control—CLR01 in PBS at final concentration of 100 μM was added to the cells at t=0 and DMSO at t=1.5 h. • Condition 3—positive control—PBS was added to the cells at t=0 and lipofuscin A2E in DMSO at final concentration of 100 μM at t=1.5 h. Lipofuscin A2E is a specific type of lipofuscin enriched in N-retinylidene-N-retinylethanolamine (A2E), which is derived from 11-cis-retinal and accumulates in the retinal pigmented epithelium (Boyer et al. (2012) J. Biol. Chem. 287: 22276-22286). • Condition 4—CLR01 in PBS at final concentration of 100 μM was added to the cells at t=0, after 1.5 h, the media was removed, the cells were washed with F12 medium, and new media was added. Lipofuscin A2E in DMSO at final concentration of 100 μM was added at t=1.5 h. • Condition 5—Lipofuscin A2E in DMSO was added to the cells at t=0 and CLR01 in PBS at final concentration of 100 μM was added at t=1 h.

[3] = tested on: pre-formed lipofuscin (A2E) aggregates in ARPE-19 cells; assay: Effect on pre-formed lipofuscin aggregates in ARPE-19 cells (A2E 10 h, wash, CLR01 12 h); conditions: A2E 100 μM for 10 h, CLR01 100 μM for 12 h
Description: FIG. 2, panel A) CLR01 in PBS and lipofuscin A2E were added to the cells at the indicated times. Cells were incubated up to 22 hours in all cases and were imaged using a fluorescence microscope for visualization of lipofuscin autofluorecence (red) and cell nuclei (DAPI, blue). FIG. 2, panel B) Quantification of the data shown in […] (N=15 per condition). Condition 1—negative control—20 μl of DMSO was added to the cells at t=0. After 10 h, the media was removed, the cells were washed with F12 medium, and new media was added. Condition 2—positive control—Lipofuscin A2E in DMSO at final concentration of 100 μM was added to the cells at t=0. After 10 h, the media was removed, the cells were washed with F12 medium, and new media was added. Condition 3—Lipofuscin A2E in DMSO was added to the cells at t=0. After 10 h, the media was removed, the cells were washed with F12 medium, and new media was added. CLR01 in PBS at final concentration of 100 μM was added at t=10 h.
The effect of CLR01 on pre-formed lipofuscin aggregates was tested as well. Human, ARPE-19 cells were treated with lipofuscin (A2E) for 10 h (to let lipofuscin aggregates form). Upon washing the cells to remove A2E from the media, CLR01 was added to the medium for an additional period of 12 h. Cells were then imaged by fluorescence microscopy and fluorescence quantified (FIG. 2). […]

CLR01
lysosome integrity [1]: lysosome integrity was not affected
inhibition of lipofuscin accumulation and aggregation (overall finding) ([2]; ARPE-19 retinal cells, CLR01 100 μM, lipofuscin A2E 100 μM): inhibits lipofuscin accumulation and aggregation; also recorded: powerfully inhibits the formation of lipofuscin aggregates
harm to the cells (safety control) ([2]; condition 2: CLR01 100 μM at t=0, DMSO at t=1.5 h, no A2E, ARPE-19 cells, 6 h): did not harm the cells
reduction of the accumulation of lipofuscin aggregates at 6 h ([2]; condition 4: CLR01 100 μM at t=0, washed out after 1.5 h, then lipofuscin A2E 100 μM, ARPE-19 cells, 6 h): ~60%
accumulation of lipofuscin aggregates ([2]; condition 5: lipofuscin A2E at t=0, CLR01 100 μM added at t=1 h, ARPE-19 cells, 6 h): reduced almost to the negative-control level
clearing effect compared with condition 5 of FIG. 1 (CLR01 added simultaneously with lipofuscin loading) [3]: lower
